Laboratory results taken from patent US10980809B2, “Urea-substituted aromatic ring-linked dioxane-quinazoline and -linked dioxane-quinoline compounds, preparation method therefor and use thereof” (BEIJING SCITECH-MQ PHARMACEUTICALS LIMITED, priority 2017, dated 2021).

Assays:
VEGFR-2 kinase = VEGFR-2 kinase (Homo sapiens (Human), UniProt P35968); experiment: Test of small molecule compounds for inhibiting the activity of VEGFR-2 kinase; assay type: biochemical; conditions: class symbols A-D
Method: Test of Small Molecule Compounds for Inhibiting the Activity of VEGFR-2 Kinase
The test was carried out as follows:
2. 2.5 μl of the gradient-diluted compounds was taken with a transfer pipette to a 384-well plate,
3. Addition of enzyme: 5 μl of 2×VEGFR-2 kinase was taken with a transfer pipette to the corresponding reaction well of the 384-well plate, which was mixed and pre-reacted at room temperature for 30 min,
5. Negative control: 2.5 μl/well 4× substrate/ATP Mix and 7.5 μl 1× Kinase Assay Buffer were added to the wells of the 384-well plate,
Positive control: 2.5 μl/well 4× substrate/ATP Mix, 2.5 μl/well 1× Kinase Assay Buffer containing 4% DMSO, and 5 μl/well 2×VEGFR-2 solution were added to the 384-well plate. The final concentration of DMSO in the reaction system is […],
6. The mixture was mixed well and then centrifuged and reacted at room temperature in dark for 60 min,
9. The 384-well plate was placed into the Envision plate reader and the signal was detected using the appropriate program,

C-RAF = C-RAF (Homo sapiens (Human), UniProt P04049); experiment: Test of small molecule compounds for inhibiting the activity of C-RAF kinase (ADP-Glo)
Method: (§1) Test of Small Molecule Compounds for Inhibiting the Activity of C-RAF and B-RAF Kinases
(§2) 1. Preparation of test compounds: according to the molecular weight of the compounds, an appropriate volume of DMSO was directly added to dissolve the test compounds. For storing the compound, the concentration of DMSO is 100%, and the final concentration of DMSO in the experimental system is 1%.
(§3) Enzyme: B-RAF: 0.1 ng/l (the final concentration in the reaction system); C-RAF: 0.1 ng/μl (the final concentration in the reaction system)
(§4) HPE: the reaction without enzyme (1% DMSO)
(§5) ZPE: the reaction with enzyme but without compound (1% DMSO)
(§6) a) 1 ul of 10-fold diluted compound or 10% DMSO was added to a 384-well assay plate,
(§7) b) 4 ul enzyme solution or assay buffer was added to the wells of the assay plate,
(§8) c) the plate was centrifuged at 1000 rpm for 1 minute to homogeneous,
(§9) d) 5 ul of ATP-substrate mixture was added to the wells of the assay plate,
(§10) e) the plate was shaked for mixing for 2 minutes,
(§11) f) the plate was incubated at 30° C. for 1 hour,
(§12) g) 10 ul of ADP-Glo reagent was added to the wells of the assay plate, and the plate was incubated for 40 minutes at 27° C.,
(§13) h) 20 ul of kinase assay solution was added to the wells of the plate, and the plate was incubated for 30 minutes at 27° C.,
(§14) i) the chemiluminescent signal was read with Envision.
(§15) The IC50 values of the positive control compound and the test compounds were calculated using the Prism software according to the variable slope of the curve.

B-RAF = B-RAF (Homo sapiens (Human), UniProt P15056); experiment: Test of small molecule compounds for inhibiting the activity of B-RAF kinase (ADP-Glo)
B-RAF, sequence (P15056 whole entry): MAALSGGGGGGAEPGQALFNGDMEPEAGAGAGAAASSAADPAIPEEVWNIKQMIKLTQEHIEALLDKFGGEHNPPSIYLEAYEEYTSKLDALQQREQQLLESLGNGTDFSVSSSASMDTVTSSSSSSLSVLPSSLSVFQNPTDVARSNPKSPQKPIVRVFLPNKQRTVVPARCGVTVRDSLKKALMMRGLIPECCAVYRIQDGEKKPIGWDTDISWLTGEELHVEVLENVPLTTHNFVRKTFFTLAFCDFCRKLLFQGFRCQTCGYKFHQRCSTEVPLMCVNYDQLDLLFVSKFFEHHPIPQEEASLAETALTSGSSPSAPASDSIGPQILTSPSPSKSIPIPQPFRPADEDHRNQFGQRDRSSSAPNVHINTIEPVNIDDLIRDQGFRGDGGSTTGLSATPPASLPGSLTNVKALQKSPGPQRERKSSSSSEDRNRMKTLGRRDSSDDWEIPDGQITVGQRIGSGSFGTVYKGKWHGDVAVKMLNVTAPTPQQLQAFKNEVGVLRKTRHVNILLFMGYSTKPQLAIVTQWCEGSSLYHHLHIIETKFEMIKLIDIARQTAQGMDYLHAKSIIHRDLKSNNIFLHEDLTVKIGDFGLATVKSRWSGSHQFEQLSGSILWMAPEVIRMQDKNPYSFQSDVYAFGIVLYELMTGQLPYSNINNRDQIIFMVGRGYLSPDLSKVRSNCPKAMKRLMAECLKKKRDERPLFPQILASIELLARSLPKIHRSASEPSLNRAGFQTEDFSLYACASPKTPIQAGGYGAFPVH
Method: as §1, §2, §3, §4, §5, §6, §7, §8, §9, §10, §11, §12, §13, §14, §15

VEGFR-2 kinase, sequence (P35968 20-1356): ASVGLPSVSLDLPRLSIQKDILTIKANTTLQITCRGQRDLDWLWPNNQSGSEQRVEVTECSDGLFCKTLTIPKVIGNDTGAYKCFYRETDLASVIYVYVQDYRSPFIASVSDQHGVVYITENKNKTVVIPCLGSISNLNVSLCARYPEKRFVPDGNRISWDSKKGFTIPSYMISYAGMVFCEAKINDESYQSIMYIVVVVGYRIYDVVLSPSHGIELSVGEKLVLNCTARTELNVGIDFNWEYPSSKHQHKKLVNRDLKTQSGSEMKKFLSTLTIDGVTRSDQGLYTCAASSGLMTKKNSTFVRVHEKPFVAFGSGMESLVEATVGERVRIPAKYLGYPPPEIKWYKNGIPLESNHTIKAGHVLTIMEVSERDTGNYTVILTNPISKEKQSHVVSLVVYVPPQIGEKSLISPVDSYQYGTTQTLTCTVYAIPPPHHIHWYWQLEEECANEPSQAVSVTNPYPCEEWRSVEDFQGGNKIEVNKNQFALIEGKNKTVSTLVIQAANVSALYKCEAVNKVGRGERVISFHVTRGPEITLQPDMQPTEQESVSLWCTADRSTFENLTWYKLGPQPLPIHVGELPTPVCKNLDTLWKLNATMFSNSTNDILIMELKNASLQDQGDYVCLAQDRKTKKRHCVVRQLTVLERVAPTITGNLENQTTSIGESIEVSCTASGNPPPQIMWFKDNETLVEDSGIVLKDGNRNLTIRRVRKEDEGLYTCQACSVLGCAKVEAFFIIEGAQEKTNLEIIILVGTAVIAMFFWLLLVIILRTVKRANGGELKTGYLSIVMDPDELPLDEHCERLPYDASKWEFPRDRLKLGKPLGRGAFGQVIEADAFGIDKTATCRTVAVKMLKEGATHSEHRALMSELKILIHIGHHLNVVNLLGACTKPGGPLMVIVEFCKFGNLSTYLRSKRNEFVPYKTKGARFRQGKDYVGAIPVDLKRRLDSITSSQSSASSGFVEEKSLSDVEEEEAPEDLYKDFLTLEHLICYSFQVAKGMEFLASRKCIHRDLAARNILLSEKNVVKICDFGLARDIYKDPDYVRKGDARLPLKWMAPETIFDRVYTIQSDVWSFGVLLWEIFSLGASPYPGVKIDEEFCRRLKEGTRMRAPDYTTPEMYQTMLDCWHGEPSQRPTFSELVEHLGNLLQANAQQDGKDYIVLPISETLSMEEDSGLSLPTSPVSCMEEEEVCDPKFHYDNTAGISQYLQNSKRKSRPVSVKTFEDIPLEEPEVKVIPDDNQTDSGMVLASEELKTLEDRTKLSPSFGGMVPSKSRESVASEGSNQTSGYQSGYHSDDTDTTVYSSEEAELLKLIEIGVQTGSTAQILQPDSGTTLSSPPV
C-RAF, sequence (P04049 whole entry): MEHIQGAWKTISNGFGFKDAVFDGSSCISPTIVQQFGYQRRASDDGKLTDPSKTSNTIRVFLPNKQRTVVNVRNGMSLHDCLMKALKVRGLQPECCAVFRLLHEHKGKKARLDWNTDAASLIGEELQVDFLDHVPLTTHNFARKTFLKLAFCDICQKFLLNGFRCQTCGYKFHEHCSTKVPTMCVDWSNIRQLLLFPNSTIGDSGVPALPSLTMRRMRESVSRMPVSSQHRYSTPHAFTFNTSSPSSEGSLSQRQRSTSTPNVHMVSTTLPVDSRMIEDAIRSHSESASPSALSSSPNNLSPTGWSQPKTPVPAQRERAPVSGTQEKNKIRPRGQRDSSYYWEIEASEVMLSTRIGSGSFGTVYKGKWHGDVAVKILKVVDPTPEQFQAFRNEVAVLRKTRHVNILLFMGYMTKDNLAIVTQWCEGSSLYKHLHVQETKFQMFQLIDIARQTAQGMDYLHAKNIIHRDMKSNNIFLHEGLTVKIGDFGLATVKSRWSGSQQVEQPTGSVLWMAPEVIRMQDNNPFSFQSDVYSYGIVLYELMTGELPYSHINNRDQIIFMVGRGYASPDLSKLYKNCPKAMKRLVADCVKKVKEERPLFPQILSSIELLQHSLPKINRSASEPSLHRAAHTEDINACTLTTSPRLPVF

| SMILES | IC50 (VEGFR-2 kinase) | IC50 (C-RAF) | IC50 (B-RAF) |
| --- | --- | --- | --- |
| O=C(Nc1ccc(Oc2ncnc3cc(OC4CCOC4)c4c(c23)OCCO4)cc1)Nc1cc(C(F)(F)F)ccc1F (stereo not drawn) [Example 80, 1-(2-fluoro-5-(trifluoromethyl)phenyl)-3-(4-((5-((tetrahydrofuran-3-yl)oxy)-2,3-dihydro-[1,4]dioxino[2,3-f]quinazolin-10-yl)oxy)phenyl)urea] | < 50 nM | – | – |
| O=C(Nc1ccc(Oc2ncnc3cc(OCCCN4CCS(=O)(=O)CC4)c4c(c23)OCCO4)cc1)Nc1cc(C(F)(F)F)ccc1F [Example 81, 1-(4-((5-(3-(1,1-dioxidothiomorpholino)propoxy)-2,3-dihydro-[1,4]dioxino[2,3-f]quinazolin-10-yl)oxy)phenyl)-3-(2-fluoro-5-(trifluoromethyl)phenyl)urea] | < 50 nM | – | – |
| CN(C)CCCOc1cc2ncnc(Nc3ccc(NC(=O)NC4CC4)c(Cl)c3)c2c2c1OCCO2 [Example 82, 1-(2-chloro-4-((5-(3-(dimethylamino)propoxy)-2,3-dihydro-[1,4]dioxino[2,3-f]quinazolin-10-yl)amino)phenyl)-3-cyclopropylurea] | < 50 nM | – | – |
| CN1CCN(CCOc2cc3ncnc(Nc4ccc(NC(=O)NC5CC5)c(Cl)c4)c3c3c2OCCO3)CC1 [Example 83, 1-(2-chloro-4-((5-(2-(1-methylpiperazin-4-yl)ethoxy)-2,3-dihydro-[1,4]dioxino[2,3-f]quinazolin-10-yl)amino)phenyl)-3-cyclopropylurea] | 50 to 500 nM | – | – |
| CSCCOc1cc2ncnc(Nc3ccc(NC(=O)NC4CC4)c(Cl)c3)c2c2c1OCCO2 [Example 84, 1-(2-chloro-4-((5-(2-methylthioethoxy)-2,3-dihydro-[1,4]dioxino[2,3-f]quinazolin-10-yl)amino)phenyl)-3-cyclopropylurea] | < 50 nM | – | – |
| CSCCOc1cc2ncnc(Oc3ccc(NC(=O)NC4CC4)c(Cl)c3)c2c2c1OCCO2 [Example 85, 1-(2-chloro-4-(((5-(2-methylthio)ethoxy)-2,3-dihydro-[1,4]dioxino[2,3-f]quinazolin-10-yl)oxy)phenyl)-3-cyclopropylurea] | 500 to 5000 nM | – | – |
| COCCCOc1cc2ncnc(Oc3ccc(NC(=O)NC4CC4)c(Cl)c3)c2c2c1OCCO2 [Example 86, 1-(2-chloro-4-(((5-(3-methoxy)propoxy)-2,3-dihydro-[1,4]dioxino[2,3-f]quinazolin-10-yl)oxy)phenyl)-3-cyclopropylurea] | < 50 nM | – | – |
| CN(C)CCOc1cc2ncnc(Nc3ccc(NC(=O)NC4CC4)c(Cl)c3)c2c2c1OCCO2 [Example 87] | 50 to 500 nM | – | – |
| COCCCCCCOc1cc2ncnc(Oc3ccc(NC(=O)NC4CC4)c(Cl)c3)c2c2c1OCCO2 [Example 88] | < 50 nM | – | – |
| O=C(Nc1ccc(Oc2ncnc3cc(OCCCN4CCOCC4)c4c(c23)OCCO4)cc1)Nc1cc(Cl)ccc1F [Example 89, 1-(2-fluoro-5-chlorophenyl)-3-(4-((5-(3-morpholinopropoxy)-2,3-dihydro-[1,4]dioxino[2,3-f]quinazolin-10-yl)oxy)phenyl)urea] | < 50 nM | – | – |
| COc1cc2nccc(Oc3ccc(NC(=O)Nc4ccc(Cl)c(C(F)(F)F)c4)cc3)c2c2c1OCCO2 [Example 90, 1-(4-chloro-3-(trifluoromethyl)phenyl)-3-(4-((5-methoxy-2,3-dihydro-[1,4]dioxino[2,3-f]quinolin-10-yl)oxy)phenyl)urea] | < 50 nM | – | – |
| COc1cc2nccc(Oc3ccc(NC(=O)Nc4ccc(Cl)c(C(F)(F)F)c4)cc3F)c2c2c1OCCO2 [Example 91, 1-(4-chloro-3-(trifluoromethyl)phenyl)-3-(3-fluoro-4-((5-methoxy-2,3-dihydro-[1,4]dioxino[2,3-f]quinoline-10-yl)oxy)phenyl)urea] | 50 to 500 nM | – | – |
| COc1cc2nccc(Oc3ccc(NC(=O)Nc4ccc(Cl)c(C(F)(F)F)c4)c(F)c3)c2c2c1OCCO2 [Example 92, 1-(4-chloro-3-(trifluoromethyl)phenyl)-3-(2-fluoro-4-((5-methoxy-2,3-dihydro-[1,4]dioxino[2,3-f]quinoline-10-yl)oxy)phenyl)urea] | 50 to 500 nM | – | – |
| COCCOc1cc2nccc(Oc3ccc(NC(=O)Nc4ccc(Cl)c(C(F)(F)F)c4)cc3)c2c2c1OCCO2 [Example 93, 1-(4-chloro-3-(trifluoromethyl)phenyl)-3-(4-((5-(2-methoxyethoxy)-2,3-dihydro-[1,4]dioxino[2,3-f]quinoline-10-yl)oxy)phenyl)urea] | 50 to 500 nM | – | – |
| COCCOc1cc2nccc(Oc3ccc(NC(=O)Nc4ccc(Cl)c(C(F)(F)F)c4)cc3F)c2c2c1OCCO2 [Example 94, 1-(4-chloro-3-(trifluoromethyl)phenyl)-3-(3-fluoro-4-((5-(2-methoxyethoxy)-2,3-dihydro-[1,4]dioxino[2,3-f]quinoline-10-yl)oxy)phenyl)urea] | 50 to 500 nM | – | – |

Further lines, results first:

| IC50 (VEGFR-2 kinase) | IC50 (C-RAF) | IC50 (B-RAF) | SMILES |
| --- | --- | --- | --- |
| < 50 nM | > 1000 nM | > 1000 nM | COc1cc2ncnc(Nc3ccc(NC(=O)Nc4cccc(S(C)(=O)=O)c4)c(Cl)c3)c2c2c1OCCO2 [Example 17, 1-(2-chloro-4-((5-methoxy-2,3-dihydro-[1,4]dioxino[2,3-f]quinazolin-10-yl)amino)phenyl)-3-(3-methylsulfonylphenyl)urea] |
| < 50 nM | < 200 nM | < 200 nM | COc1cc2ncnc(Oc3ccc(NC(=O)Nc4ccc(Cl)c(C(F)(F)F)c4)c(F)c3)c2c2c1OCCO2 [Example 19, 1-(4-chloro-3-(trifluoromethyl)phenyl)-3-(2-fluoro-4-((5-methoxy-2,3-dihydro-[1,4]dioxino[2,3-f]quinazolin-10-yl)oxy)phenyl)urea] |
| < 50 nM | 500 to 1000 nM | < 200 nM | COCCOc1cc2ncnc(Nc3ccc(NC(=O)Nc4ccc(Cl)c(C(F)(F)F)c4)c(Cl)c3)c2c2c1OCCO2 [Example 42, 1-(2-chloro-4-((5-(2-methoxyethoxy)-2,3-dihydro-[1,4]dioxino[2,3-f]quinazolin-10-yl)amino)phenyl)-3-(4-chloro-3-(trifluoromethyl)phenyl)urea] |
| < 50 nM | > 1000 nM | > 1000 nM | COCCOc1cc2ncnc(Oc3ccc(NC(=O)NC4CC4)c(Cl)c3)c2c2c1OCCO2 [Example 45, 1-(2-chloro-4-((5-(2-methoxyethoxy)-2,3-dihydro-[1,4]dioxino[2,3-f]quinazolin-10-yl)oxy)phenyl)-3-cyclopropylurea] |
| < 50 nM | > 1000 nM | > 1000 nM | COCCOc1cc2ncnc(Oc3ccc(NC(=O)Nc4ccc(F)cc4F)c(F)c3)c2c2c1OCCO2 [Example 49, 1-(2,4-difluorophenyl)-3-(2-fluoro-4-((5-(2-methoxyethoxy)-2,3-dihydro-[1,4]dioxino[2,3-f]quinazolin-10-yl)oxy)phenyl)urea] |
| < 50 nM | > 1000 nM | > 1000 nM | COCCOc1cc2ncnc(Oc3ccc(NC(=O)Nc4cccc(OC)c4)cc3)c2c2c1OCCO2 [Example 50, 1-(4-((5-(2-methoxyethoxy)-2,3-dihydro-[1,4]dioxino[2,3-f]quinazolin-10-yl)oxy)phenyl)-3-(3-methoxyphenyl)urea] |
| < 50 nM | > 1000 nM | > 1000 nM | O=C(Nc1ccc(Oc2ncnc3cc(OCCCN4CCCC4)c4c(c23)OCCO4)cc1Cl)NC1CC1 [Example 62, 1-(2-chloro-4-((5-(3-(pyrrolidin-1-yl)propoxy)-2,3-dihydro-[1,4]dioxino[2,3-f]quinazolin-10-yl)oxy)phenyl)-3-cyclopropylurea] |
| < 50 nM | > 1000 nM | > 1000 nM | O=C(Nc1ccc(Oc2ncnc3cc(OCCCN4CCOCC4)c4c(c23)OCCO4)cc1Cl)NC1CC1 [Example 64] |
| < 50 nM | 200 to 500 nM | 200 to 500 nM | O=C(Nc1ccc(Oc2ncnc3cc(OCCCN4CCOCC4)c4c(c23)OCCO4)cc1)Nc1ccc(Cl)c(C(F)(F)F)c1 [Example 66, 1-(4-chloro-3-(trifluoromethyl)phenyl)-3-(4-((5-(3-morpholinopropoxy)-2,3-dihydro-[1,4]dioxino[2,3-f]quinazolin-10-yl)oxy)phenyl)urea] |
| < 50 nM | 500 to 1000 nM | 200 to 500 nM | O=C(Nc1ccc(Oc2ncnc3cc(OCCCN4CCOCC4)c4c(c23)OCCO4)c(F)c1)Nc1cc(C(F)(F)F)ccc1F [Example 67, 1-(3-fluoro-4-((5-(3-morpholinopropoxy)-2,3-dihydro-[1,4]dioxino[2,3-f]quinazolin-10-yl)oxy)phenyl)-3-(2-fluoro-5-(trifluoromethyl)phenyl)urea] |
